Measured values published in PubChem BioAssay AID1919000 (Molecular Pharmacology Branch, DTP, NCI, 2023).

System: 653999-131-R-J2-PDC complex spheroids, growth % test/control
Assay: Anticancer human tumor 653999-131-R-J2-PDC patient-derived lung adenocarcinoma cell line growth inhibition [AhR]
Conditions: for IC50: curve of first compound; for viability, T/C: stronger effect = lower value
Method in brief: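 Spheroids combined tumor cells with HUVEC endothelial cells and human MSCs as stroma. AhR antagonists were paired with standard or investigational drugs, each dosed in half-log steps down from near clinical Cmax, or from 10 microM where Cmax was unknown.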
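Note: spheroids exposed to agents for seven days.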
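Throughout, for viability, T/C: 100% = DMSO vehicle control viability.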

In the case of `CC1COCCN1c1cc(C2(S(C)(=N)=O)CC2)nc(-c2ccnc3[nH]ccc23)n1` (stereo not given) + CC(CO)NC(=O)c1cc(-c2ccc(Cl)cc2)nn(-c2cnn(C)c2)c1=O, the IC50 (second compound 0.1 µM) is reported as 8.97 µM, the IC50 (second compound 0.316 µM) is reported as over 10 µM and the IC50 (second compound 1 µM) is reported as over 10 µM. For the same molecule, the IC50 (second compound 3.16 µM) was 7.88 µM, the IC50 (second compound 10 µM) was 3.94 µM and the viability, T/C (second compound 0.1 µM, first compound 0.0316 µM) was 102%. The viability, T/C (second compound 0.1 µM, first compound 0.1 µM) was 97.6%, the viability, T/C (second compound 0.1 µM, first compound 0.316 µM) was 97.8% and the viability, T/C (second compound 0.1 µM, first compound 1 µM) was 87.3%. For the same molecule, the viability, T/C (second compound 0.1 µM, first compound 3.16 µM) was 75.2%, the viability, T/C (second compound 0.1 µM, first compound 10 µM) was 47.1% and the viability, T/C (second compound 0.316 µM, first compound 0.0316 µM) was 101%. For the same molecule, the viability, T/C (second compound 0.316 µM, first compound 0.1 µM) was 95.6%, the viability, T/C (second compound 0.316 µM, first compound 0.316 µM) was 103% and the viability, T/C (second compound 0.316 µM, first compound 1 µM) was 83.3%. It also gave a viability, T/C (second compound 0.316 µM, first compound 3.16 µM) of 71.3%, a viability, T/C (second compound 0.316 µM, first compound 10 µM) of 52.6% and a viability, T/C (second compound 1 µM, first compound 0.0316 µM) of 101%. It also gave a viability, T/C (second compound 1 µM, first compound 0.1 µM) of 95.4%, a viability, T/C (second compound 1 µM, first compound 0.316 µM) of 101% and a viability, T/C (second compound 1 µM, first compound 1 µM) of 91%. The viability, T/C (second compound 1 µM, first compound 3.16 µM) was 73.9%, the viability, T/C (second compound 1 µM, first compound 10 µM) was 51.5% and the viability, T/C (second compound 3.16 µM, first compound 0.0316 µM) was 92.7%. It also gave a viability, T/C (second compound 3.16 µM, first compound 0.1 µM) of 107%, a viability, T/C (second compound 3.16 µM, first compound 0.316 µM) of 100% and a viability, T/C (second compound 3.16 µM, first compound 1 µM) of 88.8%. For the same molecule, the viability, T/C (second compound 3.16 µM, first compound 3.16 µM) was 55.6%, the viability, T/C (second compound 3.16 µM, first compound 10 µM) was 48.5% and the viability, T/C (second compound 10 µM, first compound 0.0316 µM) was 111%. The viability, T/C (second compound 10 µM, first compound 0.1 µM) was 98.5%, the viability, T/C (second compound 10 µM, first compound 0.316 µM) was 100% and the viability, T/C (second compound 10 µM, first compound 1 µM) was 78%. The viability, T/C (second compound 10 µM, first compound 3.16 µM) was 51.5% and the viability, T/C (second compound 10 µM, first compound 10 µM) was 41.8%.

`CCN(c1cc(-c2ccc(CN3CCOCC3)cc2)cc(C(=O)NCc2c(C)cc(C)[nH]c2=O)c1C)C1CCOCC1` + CC(CO)NC(=O)c1cc(-c2ccc(Cl)cc2)nn(-c2cnn(C)c2)c1=O gave an IC50 (second compound 0.1 µM) of over 3 µM, an IC50 (second compound 0.316 µM) of over 3 µM and an IC50 (second compound 1 µM) of over 3 µM. For the same molecule, the IC50 (second compound 3.16 µM) was over 3 µM, the IC50 (second compound 10 µM) was over 3 µM and the viability, T/C (second compound 0.1 µM, first compound 0.00949 µM) was 112%. For the same molecule, the viability, T/C (second compound 0.1 µM, first compound 0.03 µM) was 97.6%, the viability, T/C (second compound 0.1 µM, first compound 0.0949 µM) was 120% and the viability, T/C (second compound 0.1 µM, first compound 0.3 µM) was 95.9%. It also gave a viability, T/C (second compound 0.1 µM, first compound 0.949 µM) of 93.9%, a viability, T/C (second compound 0.1 µM, first compound 3 µM) of 90% and a viability, T/C (second compound 0.316 µM, first compound 0.00949 µM) of 119%. For the same molecule, the viability, T/C (second compound 0.316 µM, first compound 0.03 µM) was 107%, the viability, T/C (second compound 0.316 µM, first compound 0.0949 µM) was 101% and the viability, T/C (second compound 0.316 µM, first compound 0.3 µM) was 94.6%. It also gave a viability, T/C (second compound 0.316 µM, first compound 0.949 µM) of 101%, a viability, T/C (second compound 0.316 µM, first compound 3 µM) of 94.1% and a viability, T/C (second compound 1 µM, first compound 0.00949 µM) of 115%. For the same molecule, the viability, T/C (second compound 1 µM, first compound 0.03 µM) was 134%, the viability, T/C (second compound 1 µM, first compound 0.0949 µM) was 115% and the viability, T/C (second compound 1 µM, first compound 0.3 µM) was 114%. For the same molecule, the viability, T/C (second compound 1 µM, first compound 0.949 µM) was 105%, the viability, T/C (second compound 1 µM, first compound 3 µM) was 102% and the viability, T/C (second compound 3.16 µM, first compound 0.00949 µM) was 112%. It also gave a viability, T/C (second compound 3.16 µM, first compound 0.03 µM) of 113%, a viability, T/C (second compound 3.16 µM, first compound 0.0949 µM) of 119% and a viability, T/C (second compound 3.16 µM, first compound 0.3 µM) of 114%. The viability, T/C (second compound 3.16 µM, first compound 0.949 µM) was 106%, the viability, T/C (second compound 3.16 µM, first compound 3 µM) was 99.6% and the viability, T/C (second compound 10 µM, first compound 0.00949 µM) was 111%. For the same molecule, the viability, T/C (second compound 10 µM, first compound 0.03 µM) was 117%, the viability, T/C (second compound 10 µM, first compound 0.0949 µM) was 130% and the viability, T/C (second compound 10 µM, first compound 0.3 µM) was 114%. The viability, T/C (second compound 10 µM, first compound 0.949 µM) was 105% and the viability, T/C (second compound 10 µM, first compound 3 µM) was 96.1%.
